Tests used:
[1] = Inhibition of HCV NS3/4A protease using AcDTEDVVP(Nva)-O-PAP as substrate pretreated with substrate for 3 mins followed by enzyme addition measured after 60 mins by spectrophotometric method; set-up: species or system Hepacivirus hominis
[2] = Inhibition of HCV NS3/4A protease; set-up: species or system Hepacivirus hominis

Ki [1] [nM]	IC50 [2] [nM]	SMILES
14		CC(C)(C)NC(=O)N[C@H](C(=O)N1C[C@H]2[C@@H]([C@H]1C(=O)NC(CC1CCC1)C(=O)C(N)=O)C2(C)C)C(C)(C)C (some centres undefined) [BOCEPREVIR]
	1030	CCC[C@H](NC(=O)[C@@H]1[C@H]2CCC[C@H]2CN1C(=O)[C@@H](NC(=O)[C@@H](NC(=O)c1cnccn1)C1CCCCC1)C(C)(C)C)C(=O)C(=O)NC1CC1 [TELAPREVIR]
	0.18	Cc1cnc(C(=O)N[C@H]2CCCCC/C=C\[C@@H]3C[C@@]3(C(=O)NS(=O)(=O)C3CC3)NC(=O)[C@@H]3C[C@@H](Oc4nc5ccccc5c5ccccc45)CN3C2=O)cn1 [PARITAPREVIR]
	2.6	C=C[C@@H]1C[C@]1(NC(=O)[C@@H]1C[C@@H](Oc2ncc(OC)c3ccc(Cl)cc23)CN1C(=O)[C@@H](NC(=O)OC(C)(C)C)C(C)(C)C)C(=O)NS(=O)(=O)C1CC1 [ASUNAPREVIR]

From ChEMBL document CHEMBL4020775, “QSAR studies of the bioactivity of hepatitis C virus (HCV) NS3/4A protease inhibitors by multiple linear regression (MLR) and support vector machine (SVM)” (Bioorg Med Chem Lett, 2017)
